In patent US12559470B2, “FGFR inhibitors and uses thereof” (University of Southern California, priority 2018, dated 2026):
pIC50: −log10 of the molar value.

Target: FGFR2 (Homo sapiens, UniProt P21802)
Assay: In vitro inhibitory assay (IC50) against FGFR2
Type: biochemical
Protocol: The efficacy of the compounds to inhibit the kinase activity of FGFRs was measured by the determination of the IC50 value.
The results are listed in Table 4 expressed as IC50 values (the concentration of compound at which 50% of the enzyme activity is inhibited).

FGFR2, sequence (P21802 22-821): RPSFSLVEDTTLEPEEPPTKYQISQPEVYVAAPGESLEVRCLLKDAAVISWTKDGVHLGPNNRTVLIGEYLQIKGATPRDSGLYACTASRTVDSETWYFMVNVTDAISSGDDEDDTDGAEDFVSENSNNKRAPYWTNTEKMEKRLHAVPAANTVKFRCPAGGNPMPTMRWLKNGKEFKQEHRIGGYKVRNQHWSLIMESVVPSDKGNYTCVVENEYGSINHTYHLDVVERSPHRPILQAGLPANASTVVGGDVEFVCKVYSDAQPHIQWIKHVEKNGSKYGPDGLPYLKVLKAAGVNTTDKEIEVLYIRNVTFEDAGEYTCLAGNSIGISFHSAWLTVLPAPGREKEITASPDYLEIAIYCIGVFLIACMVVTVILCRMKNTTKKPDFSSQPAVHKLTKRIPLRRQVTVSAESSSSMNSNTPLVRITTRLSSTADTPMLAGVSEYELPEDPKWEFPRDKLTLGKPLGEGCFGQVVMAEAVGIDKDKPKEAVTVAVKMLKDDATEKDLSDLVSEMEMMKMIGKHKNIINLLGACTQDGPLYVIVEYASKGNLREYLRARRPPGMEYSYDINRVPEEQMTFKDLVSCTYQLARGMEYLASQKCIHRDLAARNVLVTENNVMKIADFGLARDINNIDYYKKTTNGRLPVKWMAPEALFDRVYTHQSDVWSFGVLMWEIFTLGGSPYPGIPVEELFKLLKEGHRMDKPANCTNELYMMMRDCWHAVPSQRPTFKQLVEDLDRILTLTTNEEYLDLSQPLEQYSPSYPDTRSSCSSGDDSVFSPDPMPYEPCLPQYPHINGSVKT

pIC50: 8.22
SMILES: CCN1CCN(c2ccc(Nc3cc(-c4cccnc4Nc4c(Cl)c(OC)cc(OC)c4Cl)ncn3)cc2)CC1 [Compound 1, 6-(2-((2,6-dichloro-3,5-dimethoxyphenyl)amino)pyridin-3-yl)-N-(4-(4-ethylpiperazin-1-yl)phenyl)pyrimidin-4-amine]
